From publication PMC9923211, “Functional characterization and key residues engineering of a regiopromiscuity O-methyltransferase involved in benzylisoquinoline alkaloid biosynthesis in Nelumbo nucifera” (Horticulture Research, 2022)

Legend:
Assay in all cases: UPLC-MS methylation assay, Michaelis-Menten fit
NnOMT6 = molecular target: T1, NnOMT6 (Nelumbo nucifera, UniProt A0A1U7Z1M5); format: biochemical; conditions: 50 mM potassium phosphate pH 8.0, 37°C, 30 min
T1 construct: gene LOC104585771

[1] = test system: COc1c(O)cc2c3c1-c1ccccc1C[C@@H]3NCC2; format: biochemical, Nelumbo nucifera; conditions: SAM as methyl donor, 50 mM potassium phosphate pH 8.0, 37°C, 30 min
[2] = test system: COc1cc2c(cc1O)[C@@H]1Cc3ccc(OC)c(O)c3CN1CC2; format: biochemical, Nelumbo nucifera; conditions: SAM as methyl donor, 50 mM potassium phosphate pH 8.0, 37°C, 30 min

C[S+](CC[C@H](N)C(=O)O)C[C@H]1O[C@@H](n2cnc3c(N)ncnc32)[C@H](O)[C@@H]1O (some centres unmarked) [SAM]
Km (NnOMT6; 200 μM caffeic acid as acceptor): 163 µM

Oc1ccc(C[C@@H]2NCCc3cc(O)c(O)cc32)cc1 [compound 1, (S)-norcoclaurine]
Km (NnOMT6; 200 μM SAM): 282 µM

O=C(O)/C=C/c1ccc(O)c(O)c1 [compound 16, caffeic acid]
Km (NnOMT6; 200 μM SAM): 216 µM

NnOMT6 (Nelumbo nucifera; N323A)
Km [1]: 132.77 µM
Km [2]: 86.35 µM
